Data taken from the supplement of paper PMC10307832.

Legend:
Assay in all cases: relative viability (nuclei count vs DMSO), 5 days (fraction); higher = more cells survive
Dovitinib = compound: CN1CCN(c2ccc3nc(-c4c(N)c5c(F)cccc5[nH]c4=O)[nH]c3c2)CC1 [Dovitinib]
Method in brief: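 Viability was defined as treated-well nuclei divided by vehicle-well nuclei, with the median taken over replicate plates. Cells from lung cancer lines sat overnight at 37 °C in 1536-well plates, received five √10-spaced library-drug doses by pinning on vehicle-anchored plates, and grew 5 days without medium change before one-step fixation, permeabilisation and Hoechst staining, 4× imaging and MetaXpress nuclear counts. Only plates with control CV under 25% and at least one doubling were kept.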

Dovitinib + Bortezomib = compound: CN1CCN(c2ccc3nc(-c4c(N)c5c(F)cccc5[nH]c4=O)[nH]c3c2)CC1 [Dovitinib] + CC(C)C[C@H](NC(=O)[C@H](Cc1ccccc1)NC(=O)c1cnccn1)B(O)O [Bortezomib] (partner 0.002 µM)
Method in brief: (§1)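 For relative viability, nuclei counts in treated wells were divided by those in vehicle wells. Lung cancer cell lines had been pin-tool dosed in 1536-well plates the day after seeding and cultured for 5 days, then fixed and stained in one step (final 0.05% Triton X-100, 1% formaldehyde, 1 ug/ml Hoechst) and imaged at 4×. Doses were one drug alone or a fixed anchor-drug dose plus five library-drug doses (not always all listed) in √10 steps, and values are duplicate-plate medians.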

Dovitinib + Navitoclax = compound: CN1CCN(c2ccc3nc(-c4c(N)c5c(F)cccc5[nH]c4=O)[nH]c3c2)CC1 [Dovitinib] + CC1(C)CCC(c2ccc(Cl)cc2)=C(CN2CCN(c3ccc(C(=O)NS(=O)(=O)c4ccc(N[C@H](CCN5CCOCC5)CSc5ccccc5)c(S(=O)(=O)C(F)(F)F)c4)cc3)CC2)C1 [Navitoclax] (partner 0.5 µM)
Method in brief: as §1

Dovitinib + Foretinib = compound: CN1CCN(c2ccc3nc(-c4c(N)c5c(F)cccc5[nH]c4=O)[nH]c3c2)CC1 [Dovitinib] + COc1cc2c(Oc3ccc(NC(=O)C4(C(=O)Nc5ccc(F)cc5)CC4)cc3F)ccnc2cc1OCCCN1CCOCC1 [Foretinib] (partner 0.25 µM)
Method in brief: as §1

Dovitinib + Lapatinib = compound: CN1CCN(c2ccc3nc(-c4c(N)c5c(F)cccc5[nH]c4=O)[nH]c3c2)CC1 [Dovitinib] + CS(=O)(=O)CCNCc1ccc(-c2ccc3ncnc(Nc4ccc(OCc5cccc(F)c5)c(Cl)c4)c3c2)o1 [Lapatinib] (partner 2 µM)
Method in brief: as §1

Dovitinib + Pictilisib = compound: CN1CCN(c2ccc3nc(-c4c(N)c5c(F)cccc5[nH]c4=O)[nH]c3c2)CC1 [Dovitinib] + CS(=O)(=O)N1CCN(Cc2cc3nc(-c4cccc5[nH]ncc45)nc(N4CCOCC4)c3s2)CC1 [Pictilisib] (partner 1 µM)
Method in brief: as §1

Dovitinib + Crizotinib = compound: CN1CCN(c2ccc3nc(-c4c(N)c5c(F)cccc5[nH]c4=O)[nH]c3c2)CC1 [Dovitinib] + C[C@@H](Oc1cc(-c2cnn(C3CCNCC3)c2)cnc1N)c1c(Cl)ccc(F)c1Cl [Crizotinib] (partner 1 µM)
Method in brief: as §1

Dovitinib + Linsitinib = compound: CN1CCN(c2ccc3nc(-c4c(N)c5c(F)cccc5[nH]c4=O)[nH]c3c2)CC1 [Dovitinib] + C[C@]1(O)C[C@@H](c2nc(-c3ccc4ccc(-c5ccccc5)nc4c3)c3c(N)nccn32)C1 [Linsitinib] (partner 1 µM)
Method in brief: as §1

Dovitinib + Alpelisib = compound: CN1CCN(c2ccc3nc(-c4c(N)c5c(F)cccc5[nH]c4=O)[nH]c3c2)CC1 [Dovitinib] + Cc1nc(NC(=O)N2CCC[C@H]2C(N)=O)sc1-c1ccnc(C(C)(C)C(F)(F)F)c1 [Alpelisib] (partner 2 µM)
Method in brief: as §1

Dovitinib + Olaparib = compound: CN1CCN(c2ccc3nc(-c4c(N)c5c(F)cccc5[nH]c4=O)[nH]c3c2)CC1 [Dovitinib] + O=C(c1cc(Cc2n[nH]c(=O)c3ccccc23)ccc1F)N1CCN(C(=O)C2CC2)CC1 [Olaparib] (partner 8 µM)
Method in brief: as §1

Dovitinib + Luminespib = compound: CN1CCN(c2ccc3nc(-c4c(N)c5c(F)cccc5[nH]c4=O)[nH]c3c2)CC1 [Dovitinib] + CCNC(=O)c1noc(-c2cc(C(C)C)c(O)cc2O)c1-c1ccc(CN2CCOCC2)cc1 [Luminespib] (partner 0.01 µM)
Method in brief: as §1

Dovitinib + OSI-027 = compound: CN1CCN(c2ccc3nc(-c4c(N)c5c(F)cccc5[nH]c4=O)[nH]c3c2)CC1 [Dovitinib] + COc1cccc2cc(-c3nc([C@H]4CC[C@H](C(=O)O)CC4)n4ncnc(N)c34)[nH]c12 [OSI-027] (partner 0.5 µM)
Method in brief: as §1

Dovitinib + Tozasertib = compound: CN1CCN(c2ccc3nc(-c4c(N)c5c(F)cccc5[nH]c4=O)[nH]c3c2)CC1 [Dovitinib] + Cc1cc(Nc2cc(N3CCN(C)CC3)nc(Sc3ccc(NC(=O)C4CC4)cc3)n2)n[nH]1 [Tozasertib] (partner 0.1 µM)
Method in brief: as §1

Dovitinib + Dasatinib = compound: CN1CCN(c2ccc3nc(-c4c(N)c5c(F)cccc5[nH]c4=O)[nH]c3c2)CC1 [Dovitinib] + Cc1nc(Nc2ncc(C(=O)Nc3c(C)cccc3Cl)s2)cc(N2CCN(CCO)CC2)n1 [Dasatinib] (partner 0.075 µM)
Method in brief: as §1

Dovitinib + Phenformin = compound: CN1CCN(c2ccc3nc(-c4c(N)c5c(F)cccc5[nH]c4=O)[nH]c3c2)CC1 [Dovitinib] + N=C(N)NC(=N)NCCc1ccccc1 [Phenformin] (partner 250 µM)
Method in brief: as §1

## Calu-6
Dovitinib; 0.02 µM
  relative viability: 0.977
Dovitinib; 0.06325 µM
  relative viability: 1.01
Dovitinib; 0.2 µM
  relative viability: 0.999
Dovitinib; 0.6325 µM
  relative viability: 0.981
Dovitinib; 2 µM
  relative viability: 0.959
Dovitinib + Bortezomib; first compound 0.02 µM
  relative viability: 1.05
Dovitinib + Bortezomib; first compound 0.06325 µM
  relative viability: 0.992
Dovitinib + Bortezomib; first compound 0.2 µM
  relative viability: 1
Dovitinib + Bortezomib; first compound 0.6325 µM
  relative viability: 0.993
Dovitinib + Bortezomib; first compound 2 µM
  relative viability: 0.98
Dovitinib + Navitoclax; first compound 0.02 µM
  relative viability: 0.828
Dovitinib + Navitoclax; first compound 0.06325 µM
  relative viability: 0.784
Dovitinib + Navitoclax; first compound 0.2 µM
  relative viability: 0.828
Dovitinib + Navitoclax; first compound 0.6325 µM
  relative viability: 0.813
Dovitinib + Navitoclax; first compound 2 µM
  relative viability: 0.782
Dovitinib + Foretinib; first compound 0.02 µM
  relative viability: 0.925
Dovitinib + Foretinib; first compound 0.06325 µM
  relative viability: 0.861
Dovitinib + Foretinib; first compound 0.2 µM
  relative viability: 0.853
Dovitinib + Foretinib; first compound 0.6325 µM
  relative viability: 0.874
Dovitinib + Foretinib; first compound 2 µM
  relative viability: 0.912
Dovitinib + Lapatinib; first compound 0.02 µM
  relative viability: 0.99
Dovitinib + Lapatinib; first compound 0.06325 µM
  relative viability: 1.04
Dovitinib + Lapatinib; first compound 0.2 µM
  relative viability: 1.11
Dovitinib + Lapatinib; first compound 0.6325 µM
  relative viability: 1.08
Dovitinib + Lapatinib; first compound 2 µM
  relative viability: 1.09
Dovitinib + Pictilisib; first compound 0.02 µM
  relative viability: 0.931
Dovitinib + Pictilisib; first compound 0.06325 µM
  relative viability: 0.885
Dovitinib + Pictilisib; first compound 0.2 µM
  relative viability: 0.913
Dovitinib + Pictilisib; first compound 0.6325 µM
  relative viability: 0.893
Dovitinib + Pictilisib; first compound 2 µM
  relative viability: 1
Dovitinib + Crizotinib; first compound 0.02 µM
  relative viability: 0.674
Dovitinib + Crizotinib; first compound 0.06325 µM
  relative viability: 0.827
Dovitinib + Crizotinib; first compound 0.2 µM
  relative viability: 0.665
Dovitinib + Crizotinib; first compound 0.6325 µM
  relative viability: 0.847
Dovitinib + Crizotinib; first compound 2 µM
  relative viability: 0.779
Dovitinib + Linsitinib; first compound 0.02 µM
  relative viability: 0.947
Dovitinib + Linsitinib; first compound 0.06325 µM
  relative viability: 0.955
Dovitinib + Linsitinib; first compound 0.2 µM
  relative viability: 0.935
Dovitinib + Linsitinib; first compound 0.6325 µM
  relative viability: 0.93
Dovitinib + Linsitinib; first compound 2 µM
  relative viability: 0.887
Dovitinib + Alpelisib; first compound 0.02 µM
  relative viability: 0.943
Dovitinib + Alpelisib; first compound 0.06325 µM
  relative viability: 0.97
Dovitinib + Alpelisib; first compound 0.2 µM
  relative viability: 0.872
Dovitinib + Alpelisib; first compound 0.6325 µM
  relative viability: 0.925
Dovitinib + Alpelisib; first compound 2 µM
  relative viability: 1.01
Dovitinib + Olaparib; first compound 0.02 µM
  relative viability: 0.572
Dovitinib + Olaparib; first compound 0.06325 µM
  relative viability: 0.578
Dovitinib + Olaparib; first compound 0.2 µM
  relative viability: 0.553
Dovitinib + Olaparib; first compound 0.6325 µM
  relative viability: 0.571
Dovitinib + Olaparib; first compound 2 µM
  relative viability: 0.809

## NCI-H1623
Dovitinib; 0.02 µM
  relative viability: 1.07
Dovitinib; 0.06325 µM
  relative viability: 0.98
Dovitinib; 0.2 µM
  relative viability: 0.916
Dovitinib; 0.6325 µM
  relative viability: 1
Dovitinib; 2 µM
  relative viability: 0.892
Dovitinib + Luminespib; first compound 0.02 µM
  relative viability: 0.493
Dovitinib + Luminespib; first compound 0.06325 µM
  relative viability: 0.605
Dovitinib + Luminespib; first compound 0.2 µM
  relative viability: 0.491
Dovitinib + Luminespib; first compound 0.6325 µM
  relative viability: 0.551
Dovitinib + Luminespib; first compound 2 µM
  relative viability: 0.516
Dovitinib + Foretinib; first compound 0.02 µM
  relative viability: 0.81
Dovitinib + Foretinib; first compound 0.06325 µM
  relative viability: 0.821
Dovitinib + Foretinib; first compound 0.2 µM
  relative viability: 0.958
Dovitinib + Foretinib; first compound 0.6325 µM
  relative viability: 0.901
Dovitinib + Foretinib; first compound 2 µM
  relative viability: 0.893
Dovitinib + OSI-027; first compound 0.02 µM
  relative viability: 0.476
Dovitinib + OSI-027; first compound 0.06325 µM
  relative viability: 0.436
Dovitinib + OSI-027; first compound 0.2 µM
  relative viability: 0.456
Dovitinib + OSI-027; first compound 0.6325 µM
  relative viability: 0.384
Dovitinib + OSI-027; first compound 2 µM
  relative viability: 0.384
Dovitinib + Tozasertib; first compound 0.02 µM
  relative viability: 0.458
Dovitinib + Tozasertib; first compound 0.06325 µM
  relative viability: 0.427
Dovitinib + Tozasertib; first compound 0.2 µM
  relative viability: 0.495
Dovitinib + Tozasertib; first compound 0.6325 µM
  relative viability: 0.445
Dovitinib + Tozasertib; first compound 2 µM
  relative viability: 0.423
Dovitinib + Dasatinib; first compound 0.02 µM
  relative viability: 0.47
Dovitinib + Dasatinib; first compound 0.06325 µM
  relative viability: 0.527
Dovitinib + Dasatinib; first compound 0.2 µM
  relative viability: 0.615
Dovitinib + Dasatinib; first compound 0.6325 µM
  relative viability: 0.536
Dovitinib + Dasatinib; first compound 2 µM
  relative viability: 0.537
Dovitinib + Phenformin; first compound 0.02 µM
  relative viability: 0.569
Dovitinib + Phenformin; first compound 0.06325 µM
  relative viability: 0.574
Dovitinib + Phenformin; first compound 0.2 µM
  relative viability: 0.602
Dovitinib + Phenformin; first compound 0.6325 µM
  relative viability: 0.617
Dovitinib + Phenformin; first compound 2 µM
  relative viability: 0.636
